Experimental data reported in US10538495B2, “Modulators of indoleamine 2,3-dioxygenase” (GLAXOSMITHKLINE INTELLECTUAL PROPERTY DEVELOPMENT LIMITED, priority 2016, dated 2020).

Legend:
[1] = molecular target: T1, indoleamine 2,3-dioxygenase (IDO1) (Homo sapiens, UniProt P14902); experiment: PBMC IDOi assay (kynurenine by mass spectrometry); type: cell-based; settings: IFN-γ and LPS stimulated human PBMC, 2 days, kynurenine detected by mass spectrometry; read-out: PBMC pIC50 (converted)
Procedure: (§1) Brief descriptions of the cellular assays are provided following the table.
(§2) Compounds of the present invention were tested via high-throughput cellular assays utilizing detection of kynurenine via mass spectrometry and cytotoxicity as end-points. For the mass spectrometry and cytotoxicity assays, human peripheral blood mononuclear cells (PBMC) (PB003F; AllCells®, Alameda, Calif.) were stimulated with human interferon-γ (IFN-γ) (Sigma-Aldrich Corporation, St. Louis, Mo.) and lipopolysaccharide from Salmonella minnesota (LPS) (Invivogen, San Diego, Calif.) to induce the expression of indoleamine 2,3-dioxygenase (IDO1). Compounds with IDO1 inhibitory properties decreased the amount of kynurenine produced by the cells via the tryptophan catabolic pathway. Cellular toxicity due to the effect of compound treatment was measured using CellTiter-Glo® reagent (CTG) (Promega Corporation, Madison, Wis.), which is based on luminescent detection of ATP, an indicator of metabolically active cells.
(§3) In preparation for the assays, test compounds were serially diluted 3-fold in DMSO from a typical top concentration of 5 mM and plated at 0.5 μL in 384-well, polystyrene, clear bottom, tissue culture treated plates with lids (Greiner Bio-One, Kremsmünster, Austria) to generate 11-point dose response curves. Low control wells (0% kynurenine or 100% cytotoxicity) contained either 0.5 μL of DMSO in the presence of unstimulated (−IFN-γ/−LPS) PBMCs for the mass spectrometry assay or 0.5 μL of DMSO in the absence of cells for the cytotoxicity assay, and high control wells (100% kynurenine or 0% cytotoxicity) contained 0.5 μL of DMSO in the presence of stimulated (+IFN-γ/+LPS) PBMCs for both the mass spectrometry and cytotoxicity assays.
Frozen stocks of PBMCs were washed and recovered in RPMI 1640 medium (Thermo Fisher Scientific, Inc., Waltham, Mass.) supplemented with 10% v/v heat-inactivated fetal bovine serum (FBS) (Thermo Fisher Scientific, Inc., Waltham, Mass.), and 1× penicillin-streptomycin antibiotic solution (Thermo Fisher Scientific, Inc., Waltham, Mass.). The cells were diluted to 1,000,000 cells/mL in the supplemented RPMI 1640 medium. 50 μL of either the cell suspension, for the mass spectrometry assay, or medium alone, for the cytotoxicity assay, were added to the low control wells, on the previously prepared 384-well compound plates, resulting in 50,000 cells/well or 0 cells/well respectively. IFN-γ and LPS were added to the remaining cell suspension at final concentrations of 100 ng/ml and 50 ng/ml respectively, and 50 μL of the stimulated cells were added to all remaining wells on the 384-well compound plates. The plates, with lids, were then placed in a 37° C., 5% CO2 humidified incubator for 2 days.
Following incubation, the 384-well plates were removed from the incubator and allowed to equilibrate to room temperature for 30 minutes. For the cytotoxicity assay, CellTiter-Glo® was prepared according to the manufacturer's instructions, and 40 μL were added to each plate well. After a twenty minute incubation at room temperature, luminescence was read on an EnVision® Multilabel Reader (PerkinElmer Inc., Waltham, Mass.). For the mass spectrometry assay, 10 μL of supernatant from each well of the compound-treated plates were added to 40 μL of acetonitrile, containing 10 μM of an internal standard for normalization, in 384-well, polypropylene, V-bottom plates (Greiner Bio-One, Kremsmünster, Austria) to extract the organic analytes. Following centrifugation at 2000 rpm for 10 minutes, 10 μL from each well of the acetonitrile extraction plates were added to 90 μL of sterile, distilled H2O in 384-well, polypropylene, V-bottom plates for analysis of kynurenine and the internal standard on the RapidFire 300 (Agilent Technologies, Santa Clara, Calif.) and 4000 QTRAP MS (SCIEX, Framingham, Mass.). […]

[2] = molecular target: T1, indoleamine 2,3-dioxygenase (IDO1); experiment: HeLa IDOi assay (kynurenine by mass spectrometry); type: cell-based; set-up: human epithelial HeLa cells (CCL-2; host or cells: HeLa cells stimulated with human IFN-γ; settings: IFN-γ stimulated HeLa cells, 2 days, kynurenine detected by mass spectrometry; read-out: HeLa pIC50 (converted)
Procedure: as §1
as §2, with “epithelial HeLa” for “peripheral blood mononuclear”, “(CCL-2; ATCC®, Manassas, Va.)” for “(PBMC) (PB003F; AllCells®, Alameda, Calif.)”, “Mo.)” for “Mo.) and lipopolysaccharide from Salmonella minnesota (LPS) (Invivogen, San Diego, Calif.)”
as §3, with “(−IFN-γ) HeLa cells” for “(−IFN-γ/−LPS) PBMCs”, “(+IFN-γ) HeLa cells” for “(+IFN-γ/+LPS) PBMCs”
Frozen stocks of HeLa cells were washed and recovered in DMEM high glucose medium with HEPES (Thermo Fisher Scientific, Inc., Waltham, Mass.) supplemented with 10% v/v certified fetal bovine serum (FBS) (Thermo Fisher Scientific, Inc., Waltham, Mass.), and 1× penicillin-streptomycin antibiotic solution (Thermo Fisher Scientific, Inc., Waltham, Mass.). The cells were diluted to 100,000 cells/mL in the supplemented DMEM medium. 50 μL of either the cell suspension, for the mass spectrometry assay, or medium alone, for the cytotoxicity assay, were added to the low control wells, on the previously prepared 384-well compound plates, resulting in 5,000 cells/well or 0 cells/well respectively. IFN-γ was added to the remaining cell suspension at a final concentration of 10 nM, and 50 μL of the stimulated cells were added to all remaining wells on the 384-well compound plates. The plates, with lids, were then placed in a 37° C., 5% CO2 humidified incubator for 2 days.
Following incubation, the 384-well plates were removed from the incubator and allowed to equilibrate to room temperature for 30 minutes. For the cytotoxicity assay, CellTiter-Glo® was prepared according to the manufacturer's instructions, and 10 μL were added to each plate well. After a twenty minute incubation at room temperature, luminescence was read on an EnVision® Multilabel Reader (PerkinElmer Inc., Waltham, Mass.). For the mass spectrometry assay, 10 μL of supernatant from each well of the compound-treated plates were added to 40 μL of acetonitrile, containing 10 μM of an internal standard for normalization, in 384-well, polypropylene, V-bottom plates (Greiner Bio-One, Kremsmünster, Austria) to extract the organic analytes. Following centrifugation at 2000 rpm for 10 minutes, 10 μL from each well of the acetonitrile extraction plates were added to 90 μL of sterile, distilled H2O in 384-well, polypropylene, V-bottom plates for analysis of kynurenine and the internal standard on the RapidFire 300 (Agilent Technologies, Santa Clara, Calif.) and 4000 QTRAP MS (SCIEX, Framingham, Mass.). MS data were integrated using Agilent Technologies' RapidFire Integrator software, and data were normalized for analysis as a ratio of kynurenine to the internal standard. […]

T1 sequence (P14902 whole entry): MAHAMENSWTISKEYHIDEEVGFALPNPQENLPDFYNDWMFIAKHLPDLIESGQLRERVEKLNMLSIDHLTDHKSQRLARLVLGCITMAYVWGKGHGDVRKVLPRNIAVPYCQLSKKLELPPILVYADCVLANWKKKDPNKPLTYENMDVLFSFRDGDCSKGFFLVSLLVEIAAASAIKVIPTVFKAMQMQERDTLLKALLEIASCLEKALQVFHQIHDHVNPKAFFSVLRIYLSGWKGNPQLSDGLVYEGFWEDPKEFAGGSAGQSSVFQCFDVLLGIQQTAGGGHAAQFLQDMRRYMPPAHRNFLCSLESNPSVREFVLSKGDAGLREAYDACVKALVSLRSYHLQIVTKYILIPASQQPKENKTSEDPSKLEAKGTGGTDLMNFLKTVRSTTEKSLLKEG

IC50 [1] | IC50 [2] | SMILES
1260 nM | 2510 nM | CC(C)(C)Sc1ccc(-c2ccccc2-c2nn[nH]n2)cc1NC(=O)c1ccccc1 [Example 36, N-(4-(tert-butylthio)-2′-(2H-tetrazol-5-yl)-[1,1′-biphenyl]-3-yl)benzamide]
251 nM | 794 nM | Cc1ccc(CCC(=O)Nc2cc(-c3ccccc3-c3nn[nH]n3)ccc2SC(C)(C)C)cc1 [Example 37, N-(4-(tert-butylthio)-2′-(2H-tetrazol-5-yl)-[1,1′-biphenyl]-3-yl)-3-(p-tolyl)propanamide]
3980 nM | – | Cc1ccc(CC(=O)Nc2cc(C(C)CC(=O)O)ccc2SC(C)(C)C)cc1 (stereo not drawn) [Example 44, 3-(4-(tert-Butylthio)-3-(2-(p-tolyl)acetamido)phenyl)butanoic Acid]
– | 398 nM | COCn1nnc(-c2ccccc2-c2ccc(SC(C)(C)C)c(NC(=O)Cc3ccc(C)cc3)c2)n1 [Example 59, N-(4-(tert-butylthio)-2′-(2-(methoxymethyl)-2H-tetrazol-5-yl)-[1,1′-biphenyl]-3-yl)-2-(p-tolyl)acetamide]
– | 63.1 nM | COCn1nnnc1-c1ccccc1-c1ccc(SC(C)(C)C)c(NC(=O)Cc2ccc(C)cc2)c1 [Example 60, N-(4-(tert-butylthio)-2′-(1-(methoxymethyl)-1H-tetrazol-5-yl)-[1,1′-biphenyl]-3-yl)-2-(p-tolyl)acetamide]
– | 631 nM | Cc1ccc(CC(=O)Nc2cc(-c3ccccc3-c3nnn(C)n3)ccc2SC(C)(C)C)cc1 [Example 61, N-(4-(tert-butylthio)-2′-(2-methyl-2H-tetrazol-5-yl)-[1,1′-biphenyl]-3-yl)-2-(p-tolyl)acetamide]
– | 501 nM | Cc1ccc(CC(=O)Nc2cc(-c3ccccc3-c3nnnn3C)ccc2SC(C)(C)C)cc1 [Example 62, N-(4-(tert-butylthio)-2′-(1-methyl-1H-tetrazol-5-yl)-[1,1′-biphenyl]-3-yl)-2-(p-tolyl)acetamide]

The remaining lines, values behind:

SMILES | IC50 [1] | IC50 [2]
Cc1ccc(CC(=O)Nc2cc(-c3ccccc3-c3nn[nH]n3)ccc2SC(C)(C)C)cc1 [Example 1, N-(4-(tert-butylthio)-2′-(2H-tetrazol-5-yl)-[1,1′-biphenyl]-3-yl)-2-(p-tolyl)acetamide] | 12.6 nM | 15.8 nM
Cc1ccc(CC(=O)Nc2cc(-c3ccccc3C(=O)O)ccc2SC(C)(C)C)cc1 [Example 4, 4′-(tert-Butylthio)-3′-(2-(p-tolyl)acetamido)-[1,1′-biphenyl]-2-carboxylic acid] | 794 nM | 316 nM
Cc1ccc(CC(=O)Nc2cc(-c3ccccc3-c3nn[nH]n3)ccc2Sc2ccccc2)cc1 [Example 10] | 126 nM | 251 nM
Cc1ccc(NC(=O)Nc2cc(-c3ccccc3-c3nn[nH]n3)ccc2SC(C)(C)C)cc1 [Example 13, 1-(4-(tert-Butylthio)-2′-(2H-tetrazol-5-yl)-[1,1′-biphenyl]-3-yl)-3-(p-tolyl)urea] | 79.4 nM | 398 nM
Cc1ccc(NC(=O)Nc2cc(-c3ccccc3C(=O)O)ccc2SC(C)(C)C)cc1 [Example 14, 4′-(tert-Butylthio)-3′-(3-(p-tolyl)ureido)-[1,1′-biphenyl]-2-carboxylic Acid] | 1580 nM | –
Cc1ccc(CC(=O)Nc2cc(-c3ccccc3-c3nn[nH]n3)ccc2S(=O)(=O)c2ccccc2)cc1 [Example 15, N-(4-(phenylsulfonyl)-2′-(2H-tetrazol-5-yl)-[1,1′-biphenyl]-3-yl)-2-(p-tolyl)acetamide] | 2000 nM | 2000 nM
Cc1ccccc1CC(=O)Nc1cc(-c2ccccc2-c2nn[nH]n2)ccc1SC(C)(C)C [Example 19, N-(4-(tert-butylthio)-2′-(2H-tetrazol-5-yl)-[1,1′-biphenyl]-3-yl)-2-(o-tolyl)acetamide] | 10 nM | 15.8 nM
Cc1cccc(CC(=O)Nc2cc(-c3ccccc3-c3nn[nH]n3)ccc2SC(C)(C)C)c1 [Example 20, N-(4-(tert-butylthio)-2′-(2H-tetrazol-5-yl)-[1,1′-biphenyl]-3-yl)-2-(m-tolyl)acetamide] | 20 nM | 25.1 nM
CC(C)c1ccc(CC(=O)Nc2cc(-c3ccccc3-c3nn[nH]n3)ccc2SC(C)(C)C)cc1 [Example 27, N-(4-(tert-butylthio)-2′-(2H-tetrazol-5-yl)-[1,1′-biphenyl]-3-yl)-2-(4-isopropylphenyl)acetamide] | 3.16 nM | 3.98 nM
CC(C)(C)Sc1ccc(-c2ccccc2-c2nn[nH]n2)cc1NC(=O)Cc1ccc(Cl)cc1 [Example 34, N-(4-(tert-butylthio)-2′-(2H-tetrazol-5-yl)-[1,1′-biphenyl]-3-yl)-2-(4-chlorophenyl)acetamide] | 25.1 nM | 79.4 nM
Cc1ccc(OC(=O)Nc2cc(-c3ccccc3-c3nn[nH]n3)ccc2SC(C)(C)C)cc1 [Example 35, p-Tolyl (4-(tert-butylthio)-2′-(2H-tetrazol-5-yl)-[1,1′-biphenyl]-3-yl)carbamate] | 1580 nM | > 3160 nM
